Results published in publication PMC5068747, “Using C. elegans Forward and Reverse Genetics to Identify New Compounds with Anthelmintic Activity” (PLoS Neglected Tropical Diseases, 2016).
pIC50: −log10 of the molar value. Like-named read-outs stand apart in the source and are kept apart here.

What was measured:
Format in all cases: in vivo, Caenorhabditis elegans
[1] = tested on: C. elegans VC2010 (wild type); test: WormScan screen of C. elegans growth, fecundity, motility and mortality; conditions: Caenorhabditis elegans, 120 h, 5 days exposure
Protocol: All compound libraries were stored in 96-well plates, with 80 drugs per plate (columns 1 and 12 left empty). A BioGrid BG600 pinning robot (Digilab / BioRobotics) was used for compound transfer. The robot uses a 96-pin tool (0.7 mm dia.) to transfer a nominal volume of 340 nL of compound. For retesting, compounds were hand pinned from the original library plates to assay plates using a single 0.7 mm dia. pin. The assay plates were 96-well clear flat-bottom microplates containing 2% χ1666 E.coli bacteria in 0.5X Liquid Nematode Growth Media (LNGM) plus cholesterol (Bacteria were mass-grown in rich media, and harvested by centrifugation to produce a thick paste of bacterial cells that was kept frozen at -20°C. Cells were resuspended at 2% W/V in 0.5X LNGM to produce liquid worm food). Using a COPAS Biosort (Union Biometrica), two L4 to young adult stage VC2010 worms were added to each well of the plate in a final volume of 45 μL. After five days of exposure to the compounds, the plates were scanned and the data analyzed. A five day time period was chosen to be able to observe effects over all stages of the life cycle and through at least one round of replication. The initial proof-of-principle primary screen was performed manually using a dissecting microscope. Phenotypes scored included decreased motility, reduced brood size, and/or death as described previously. For high throughput screening of the Chembridge and Maybridge compound libraries we used the program WormScan, which was adapted for screening 96-well flat-bottom LNGM plates. Using WormScan it was possible to screen four 96-well plates at a time. Plates were scanned twice, at a resolution of 1200 dots per inch, 16-bit grayscale, producing a jpeg image. The light intensity produced by the scanner was sufficient to cause negative phototaxis equivalent to a physical stimulus for mortality determination. The time required to scan four 96-well plates using an Epson Perfection V700 Photo Scanner was less than ten minutes. The time to screen a single plate was less than 1.2 minutes, with less than ten seconds between scans.
WormScan was used to screen for the same phenotypes as in the manual screen (reduced brood size, reduced behavior/motility response and increased mortality). Two sequential scans for each 96-well plate were aligned to a reference region of interest (ROI). Image analysis was based on a difference image score calculated for each ROI. The difference image score (WormScan score) was normalized using a “percent of control” method to derive a normalized WormScan score. […] Wild-type growth in 1% DMSO (Fig 1A) results in a normalized WormScan score of 100. Exposure to 50 nM ivermectin gives a score of 0 (Fig 1C), and complete absence of worms gives a score of 0 (Fig 1D). For the primary screen the WormScan score was calculated using custom macro scripts written for Fiji. For secondary screening and any subsequent studies the WormScan score was calculated using a standalone Java program (See supplemental). Probit regression of mortality was calculated using Mathematica 8.0.

[2] = tested on: C. elegans CB193 (unc-29(e193), levamisole resistant); test: IC50 on levamisole resistant C. elegans strain; conditions: Caenorhabditis elegans, 120 h; 5 days exposure, 2 L4 per well, three biological replicates
[3] = tested on: C. elegans pink-1 mutant strains; test: Resistance of pink-1 mutant strains (MMP / knockout) to CID 2747322
[4] = tested on: C. elegans mitochondrial complex II (mev-1, sdha-1, sdhb-1, sdhd-1) mutant strains; test: Resistance of mitochondrial complex II mutant MMP strains to CID 2747322
Source text: CID 2747322 shares some structural similarity to the WACT-11 compound identified by. […] This led us to examine MMP strains with mutations in the other three mitochondrial complex II subunits; sdha-1, sdhb-1 and sdhd-1, to see if any of these strains are also resistant to CID 2747322. For thirteen strains with sdha-1 missense mutations, three are resistant. For eight strains with sdhb-1 missense mutations, two are resistant. For sdhd-1, one of five MMP strains is resistant (Table 5). To better understand how these different alleles might alter drug effectiveness, we mapped all of these mutations plus gk3613 onto an X-ray resolved protein crystal structure of the mitochondrial complex II of Ascaris suum (PDB: 3VRB) (Fig 3a).

COc1ccc(OCCNC(=O)c2ccccc2C(F)(F)F)cc1 [CID 2747322, N-[2-(4-methoxyphenoxy)ethyl]-2-(trifluoromethyl)benzamide]
pIC50 ([1]; 2 L4 per well, three biological replicates, read-out: IC50, strain VC2010 (wild type)): 4.74
pIC50 ([1]; C. elegans, read-out: Nematode IC50): 4.74
pIC50 [2]: 4.85
Resistance ([3]; strain RB2547, pink-1 Knockout): none
Resistance ([3]; strain VC20205, pink-1 W562stop): none
Resistance ([3]; strain VC20423, pink-1 V373I): none
Resistance ([3]; strain VC20470, pink-1 E162K): none
Resistance ([3]; strain VC20521, pink-1 P226S): sensitive
Resistance ([3]; strain VC20546, pink-1 P32L): sensitive
Resistance ([3]; strain VC20588, pink-1 A628T): none
Resistance ([3]; strain VC30104, pink-1 Knockout): none
Resistance ([3]; strain VC30182, pink-1 G415E): none
Resistance ([3]; strain VC40096, pink-1 M1I): none
Resistance ([3]; strain VC40194, pink-1 D378N): resistant
Resistance ([3]; strain VC40287, pink-1 S341N): resistant
Resistance ([3]; strain VC40373, pink-1 A365T): none
Resistance ([3]; strain VC40385, pink-1 L232F): resistant
Resistance ([3]; strain VC40392, pink-1 T65I): none
Resistance ([3]; strain VC40527, pink-1 V334I): none
Resistance ([3]; strain VC40694, pink-1 M556L): resistant
Resistance ([3]; strain VC40738, pink-1 E353K): none
Resistance ([3]; strain VC41008, pink-1 L180F): resistant
Resistance ([4]; strain VC20295, sdhd-1 A30V): none
Resistance ([4]; strain VC20401, sdhb-1 S209L): resistant
Resistance ([4]; strain VC20417, sdha-1 E305K): none
Resistance ([4]; strain VC20501, mev-1 S178N): none
Resistance ([4]; strain VC20587, sdhb-1 E294K): none
Resistance ([4]; strain VC20602, mev-1 G77S): resistant
Resistance ([4]; strain VC30090, sdha-1 G363E): sensitive
Resistance ([4]; strain VC30107, sdha-1 S292T): sensitive
Resistance ([4]; strain VC30120, sdhd-1 L59F): none
Resistance ([4]; strain VC40073, sdha-1 S142F): sensitive
Resistance ([4]; strain VC40186, sdhb-1 D192E): none
Resistance ([4]; strain VC40193, sdhb-1 T285I): resistant
Resistance ([4]; strain VC40304, sdha-1 P385S): none
Resistance ([4]; strain VC40350, sdha-1 V131I): none
Resistance ([4]; strain VC40364, sdhb-1 N118I): sensitive
Resistance ([4]; strain VC40386, sdhd-1 A97V): resistant
Resistance ([4]; strain VC40391, sdha-1 G335E): resistant
Resistance ([4]; strain VC40423, sdhb-1 I280S): sensitive
Resistance ([4]; strain VC40533, sdha-1 R482C): resistant
Resistance ([4]; strain VC40570, sdhd-1 L120F): none
Resistance ([4]; strain VC40576, sdha-1 D317N): sensitive
Resistance ([4]; strain VC40631, sdha-1 H504Y): none
Resistance ([4]; strain VC40752, sdhb-1 A34V): sensitive
Resistance ([4]; strain VC40764, sdha-1 A425V): sensitive
Resistance ([4]; strain VC40765, sdhb-1 L197F): none
Resistance ([4]; strain VC40770, sdha-1 E472K): none
Resistance ([4]; strain VC40781, mev-1 Y152D): resistant
Resistance ([4]; strain VC40799, mev-1 R52C): none
Resistance ([4]; strain VC40903, sdhd-1 D36N): none
Resistance ([4]; strain VC40934, mev-1 G88E): none
Resistance ([4]; strain VC41025, sdha-1 S570F): sensitive
